Values after ≈ are worked out from the molar mass of the structure shown.
Key:
in vivo [1] = details: Sprague-Dawley, rat, po, 5 mg/kg
MCF7 = assay: cells; details: Homo sapiens, MCF7, 72 h
Description: Antiproliferative activity against human MCF-7 cells incubated for 72 hrs by Cell-titer Glo assay

[2] = Kinetic solubility of compound at pH 7.4; details: buffer
[3] = Apparent permeability in MDCK cells across apical to basolateral side at 10 uM incubated for 3 hrs by LC-MS/MS analysis; details: dog
in vitro [4] = details: rat
in vitro [5] = details: human
[6] = Distribution coefficient, logD of the compound at pH 7.4; details: octanol/water
[7] = Clearance in Sprague-Dawley rat at 1 mg/kg, iv or po measured after 0.033 to 24 hrs by LC/MS/MS analysis; details: in vivo
Estrogen receptor [8] = target: T1, Estrogen receptor (Homo sapiens, UniProt P03372)
T1 sequence (P03372 whole entry): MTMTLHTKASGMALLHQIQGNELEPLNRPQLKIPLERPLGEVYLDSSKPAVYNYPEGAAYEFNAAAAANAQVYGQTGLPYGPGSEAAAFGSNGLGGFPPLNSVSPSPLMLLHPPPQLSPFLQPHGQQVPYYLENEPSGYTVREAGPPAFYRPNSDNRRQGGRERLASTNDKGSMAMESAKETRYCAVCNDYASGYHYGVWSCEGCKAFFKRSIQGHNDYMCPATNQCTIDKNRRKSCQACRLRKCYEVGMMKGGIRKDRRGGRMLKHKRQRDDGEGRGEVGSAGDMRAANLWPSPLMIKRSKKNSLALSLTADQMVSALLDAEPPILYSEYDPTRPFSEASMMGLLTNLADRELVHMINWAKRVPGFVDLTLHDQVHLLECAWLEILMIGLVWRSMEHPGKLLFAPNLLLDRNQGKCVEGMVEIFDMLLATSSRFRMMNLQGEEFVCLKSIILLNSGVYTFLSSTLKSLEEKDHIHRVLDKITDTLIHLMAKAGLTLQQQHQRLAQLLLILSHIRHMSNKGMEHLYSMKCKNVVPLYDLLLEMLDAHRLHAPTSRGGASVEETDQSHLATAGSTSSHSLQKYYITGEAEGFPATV
Description: Antagonist activity at estrogen receptor in human T47D cells incubated for 18 hrs by ultra high sensitivity luminescence reporter gene assay

in vitro [9] = details: rat; remark: listed apart in the source
in vitro [10] = details: human; remark: listed apart in the source
Estrogen receptor [11] = target: T1, Estrogen receptor; details: mcf7
Description: Induction of estrogen receptor degradation in human MCF7 cells incubated for 4 hrs by Alexafluor -488 conjugate anti-mouse IgG staining based fluorescence method

in vivo [12] = details: Sprague-Dawley, rat, iv, 1 mg/kg
in vivo [13] = details: Sprague-Dawley, rat, po, 1 mg/kg
[14] = target: T2, Estrogen receptor (Homo sapiens) (UniProt P03372); details: MCF7, dose 0.0002-100 nM, time 4.0 hrs
T2 sequence (whole entry): T1 sequence (P03372 whole entry)

[15] = target: T2, Estrogen receptor (Homo sapiens); details: MCF7, dose 1.0 nM, time 0.5-24 hrs
Nav1.5 = Nav1.5 (Homo sapiens, UniProt Q14524); assay: Inhibition of human Nav1.5 expressed in CHO cells at 10 uM by QPatch HT assay; details: CHO cells expressing human Nav1.5
Nav1.5, sequence (Q14524 whole entry): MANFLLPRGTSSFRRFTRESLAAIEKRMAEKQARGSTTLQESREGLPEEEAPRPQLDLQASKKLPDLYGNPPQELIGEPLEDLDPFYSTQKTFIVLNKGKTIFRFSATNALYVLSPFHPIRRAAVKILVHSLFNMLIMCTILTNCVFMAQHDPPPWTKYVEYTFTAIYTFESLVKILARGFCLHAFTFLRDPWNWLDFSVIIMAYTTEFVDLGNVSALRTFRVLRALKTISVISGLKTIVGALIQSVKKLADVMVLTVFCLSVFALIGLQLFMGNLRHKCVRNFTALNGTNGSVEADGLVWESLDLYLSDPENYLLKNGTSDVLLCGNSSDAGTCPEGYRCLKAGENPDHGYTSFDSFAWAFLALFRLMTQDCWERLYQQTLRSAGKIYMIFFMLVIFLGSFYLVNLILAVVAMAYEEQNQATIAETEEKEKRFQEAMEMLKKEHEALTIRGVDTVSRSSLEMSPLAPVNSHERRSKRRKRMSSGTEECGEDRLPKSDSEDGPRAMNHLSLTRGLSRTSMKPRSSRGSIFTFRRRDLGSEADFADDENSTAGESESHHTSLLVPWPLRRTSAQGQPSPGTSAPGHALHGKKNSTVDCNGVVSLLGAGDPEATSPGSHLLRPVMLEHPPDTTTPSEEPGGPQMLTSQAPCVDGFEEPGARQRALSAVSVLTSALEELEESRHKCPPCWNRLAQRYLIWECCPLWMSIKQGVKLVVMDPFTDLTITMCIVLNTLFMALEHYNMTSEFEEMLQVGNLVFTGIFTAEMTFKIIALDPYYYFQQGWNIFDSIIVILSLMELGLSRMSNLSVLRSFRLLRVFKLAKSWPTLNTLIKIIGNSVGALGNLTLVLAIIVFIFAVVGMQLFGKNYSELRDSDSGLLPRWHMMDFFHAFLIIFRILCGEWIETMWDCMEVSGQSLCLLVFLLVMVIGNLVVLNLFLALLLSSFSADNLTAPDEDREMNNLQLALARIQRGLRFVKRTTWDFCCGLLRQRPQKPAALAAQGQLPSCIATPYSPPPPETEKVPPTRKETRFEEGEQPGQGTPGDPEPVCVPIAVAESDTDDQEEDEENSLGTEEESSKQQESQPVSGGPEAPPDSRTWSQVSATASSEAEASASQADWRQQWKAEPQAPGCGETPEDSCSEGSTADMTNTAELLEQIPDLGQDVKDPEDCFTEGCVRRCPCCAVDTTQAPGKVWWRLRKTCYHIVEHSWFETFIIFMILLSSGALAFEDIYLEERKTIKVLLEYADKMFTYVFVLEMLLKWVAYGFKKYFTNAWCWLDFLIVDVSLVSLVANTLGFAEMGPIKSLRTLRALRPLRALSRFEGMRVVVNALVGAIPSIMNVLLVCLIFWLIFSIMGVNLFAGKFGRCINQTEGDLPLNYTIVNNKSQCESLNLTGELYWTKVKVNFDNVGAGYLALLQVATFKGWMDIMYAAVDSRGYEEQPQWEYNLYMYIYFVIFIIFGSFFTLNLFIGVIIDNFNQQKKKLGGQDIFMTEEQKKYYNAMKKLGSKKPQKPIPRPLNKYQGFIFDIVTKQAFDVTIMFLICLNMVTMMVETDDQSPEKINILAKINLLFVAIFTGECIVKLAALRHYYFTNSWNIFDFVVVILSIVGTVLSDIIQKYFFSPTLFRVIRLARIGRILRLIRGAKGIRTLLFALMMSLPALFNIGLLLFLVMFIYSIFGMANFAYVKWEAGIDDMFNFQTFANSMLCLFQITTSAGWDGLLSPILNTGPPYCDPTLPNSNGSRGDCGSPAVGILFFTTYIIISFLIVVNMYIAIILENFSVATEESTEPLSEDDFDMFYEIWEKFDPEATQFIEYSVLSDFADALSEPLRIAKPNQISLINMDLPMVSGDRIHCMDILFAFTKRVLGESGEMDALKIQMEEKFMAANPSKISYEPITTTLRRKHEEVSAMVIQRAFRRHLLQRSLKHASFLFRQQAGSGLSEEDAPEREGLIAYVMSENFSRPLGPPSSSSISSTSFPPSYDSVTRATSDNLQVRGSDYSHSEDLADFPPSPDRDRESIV

[16] = rat, in vivo, iv, 1 mg/kg
Cav1.2 = Cav1.2 (Homo sapiens, UniProt Q13936); assay: Inhibition of human Cav1.2 expressed in CHO cells at 10 uM by QPatch HT assay; details: CHO cells expressing human Cav1.2
Cav1.2, sequence (Q13936 whole entry): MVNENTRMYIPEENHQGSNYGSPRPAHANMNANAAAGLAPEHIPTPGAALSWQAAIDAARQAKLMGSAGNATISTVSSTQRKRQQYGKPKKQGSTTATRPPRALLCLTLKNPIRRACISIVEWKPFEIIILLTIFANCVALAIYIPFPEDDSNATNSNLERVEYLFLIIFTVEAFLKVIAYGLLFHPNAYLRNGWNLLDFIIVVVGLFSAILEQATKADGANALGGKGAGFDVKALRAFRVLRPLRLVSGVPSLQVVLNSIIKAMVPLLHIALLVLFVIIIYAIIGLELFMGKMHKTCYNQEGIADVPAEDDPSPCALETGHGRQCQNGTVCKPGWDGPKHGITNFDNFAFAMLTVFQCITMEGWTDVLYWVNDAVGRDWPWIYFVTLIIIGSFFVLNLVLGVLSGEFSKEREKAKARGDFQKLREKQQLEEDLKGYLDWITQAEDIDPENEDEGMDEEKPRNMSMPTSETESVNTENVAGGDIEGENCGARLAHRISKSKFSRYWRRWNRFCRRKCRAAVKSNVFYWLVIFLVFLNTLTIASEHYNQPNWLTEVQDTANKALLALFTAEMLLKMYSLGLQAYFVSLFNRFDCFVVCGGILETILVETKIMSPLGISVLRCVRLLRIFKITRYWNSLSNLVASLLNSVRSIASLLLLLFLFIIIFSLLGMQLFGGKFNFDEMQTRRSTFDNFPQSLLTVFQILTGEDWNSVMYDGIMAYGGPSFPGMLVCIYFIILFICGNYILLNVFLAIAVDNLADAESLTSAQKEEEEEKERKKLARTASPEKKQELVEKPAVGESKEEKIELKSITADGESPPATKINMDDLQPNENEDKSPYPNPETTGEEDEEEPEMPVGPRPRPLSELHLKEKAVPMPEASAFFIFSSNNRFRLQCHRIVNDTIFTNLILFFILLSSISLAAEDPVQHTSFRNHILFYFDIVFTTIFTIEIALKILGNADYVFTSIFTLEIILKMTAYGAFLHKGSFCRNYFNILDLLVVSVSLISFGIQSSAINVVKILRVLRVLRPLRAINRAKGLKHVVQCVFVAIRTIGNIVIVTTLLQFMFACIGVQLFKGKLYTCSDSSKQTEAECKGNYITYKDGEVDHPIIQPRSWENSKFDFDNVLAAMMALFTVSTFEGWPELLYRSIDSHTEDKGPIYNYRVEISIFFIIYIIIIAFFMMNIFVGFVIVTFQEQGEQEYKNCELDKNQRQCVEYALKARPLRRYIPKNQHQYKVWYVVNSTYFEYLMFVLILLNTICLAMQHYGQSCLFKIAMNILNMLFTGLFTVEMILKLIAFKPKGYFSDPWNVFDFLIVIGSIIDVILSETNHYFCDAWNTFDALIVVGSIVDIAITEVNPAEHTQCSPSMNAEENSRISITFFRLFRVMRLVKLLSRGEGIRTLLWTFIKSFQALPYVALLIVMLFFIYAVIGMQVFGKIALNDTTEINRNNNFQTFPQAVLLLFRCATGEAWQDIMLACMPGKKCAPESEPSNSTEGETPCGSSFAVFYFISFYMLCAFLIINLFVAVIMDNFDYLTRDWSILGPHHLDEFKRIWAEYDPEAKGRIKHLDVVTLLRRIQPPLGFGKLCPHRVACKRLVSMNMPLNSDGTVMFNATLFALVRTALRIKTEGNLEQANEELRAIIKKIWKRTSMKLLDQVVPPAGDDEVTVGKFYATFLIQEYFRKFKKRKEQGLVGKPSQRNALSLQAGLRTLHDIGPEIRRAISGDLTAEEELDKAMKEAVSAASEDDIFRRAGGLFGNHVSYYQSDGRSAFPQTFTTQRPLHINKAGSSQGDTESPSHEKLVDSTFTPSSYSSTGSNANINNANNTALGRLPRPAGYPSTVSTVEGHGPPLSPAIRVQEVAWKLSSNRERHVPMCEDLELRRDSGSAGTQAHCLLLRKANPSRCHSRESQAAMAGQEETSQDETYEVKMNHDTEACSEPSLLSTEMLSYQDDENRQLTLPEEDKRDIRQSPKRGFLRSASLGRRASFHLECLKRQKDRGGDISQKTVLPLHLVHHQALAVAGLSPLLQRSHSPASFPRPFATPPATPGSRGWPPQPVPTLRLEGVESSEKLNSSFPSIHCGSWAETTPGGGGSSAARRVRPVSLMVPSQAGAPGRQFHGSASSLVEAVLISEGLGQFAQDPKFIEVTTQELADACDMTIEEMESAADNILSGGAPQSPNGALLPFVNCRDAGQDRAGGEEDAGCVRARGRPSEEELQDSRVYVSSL

CC/C(=C(/c1ccc(/C=C/C(=O)O)cc1)c1ccc2[nH]ncc2c1)c1ccc(F)cc1Cl [BRILANESTRANT]
bioavailability (in vivo [1]): 30% | EC50 (MCF7): 17 nM | solubility kinetic [2]: 19 µM (≈ 8.49 µg/mL) | Papp A→B at 3 h, 10 µM [3]: 2.3 ×10⁻⁶ cm/s | CLint scaled at 1 h (in vitro [4]; hepatocytes): 6 mL/min/kg | CLint scaled at 1 h (in vitro [5]; hepatocytes): 15 mL/min/kg | logD [6]: 3.8 | clearance [7]: 40 mL/min/kg

C[C@@H]1Cc2c([nH]c3ccccc23)[C@@H](c2c(F)cc(OC3CN(CCCO)C3)cc2F)N1CC(F)(F)CO
IC50 (Estrogen receptor [8]): 0.08 nM | CLint scaled at 1 h, 1 µM (in vitro [9]; microsomes): 10 mL/min/kg | EC50 (MCF7): 0.6 nM | solubility kinetic [2]: 163 µM (≈ 85 µg/mL) | CLint scaled at 1 h, 1 µM (in vitro [10]; microsomes): 9 mL/min/kg | DC50 (Estrogen receptor [11]): 0.03 nM

C[C@@H]1Cc2c([nH]c3cccc(F)c23)[C@@H](c2c(F)cc(NC3CN(CCCF)C3)cc2F)N1CC(F)(F)CO
IC50 (Estrogen receptor [8]): 0.15 nM | CLint scaled at 1 h, 1 µM (in vitro [9]; microsomes): 19 mL/min/kg | clearance (in vivo [12]): 27 mL/min/kg | EC50 (MCF7): 0.5 nM | solubility kinetic [2]: 92 µM (≈ 49.7 µg/mL) | Papp A→B at 3 h, 10 µM [3]: 0.9 ×10⁻⁶ cm/s | CLint scaled at 1 h (in vitro [4]; hepatocytes): 23 mL/min/kg | CLint scaled at 1 h (in vitro [5]; hepatocytes): 12 mL/min/kg | logD [6]: 3.3 | CLint scaled at 1 h, 1 µM (in vitro [10]; microsomes): 12 mL/min/kg | DC50 (Estrogen receptor [11]): 0.04 nM

C[C@@H]1Cc2c(ccc3[nH]ncc23)[C@@H](c2c(F)cc(OCCN3CC(CF)C3)cc2F)N1CC(C)(C)F
IC50 (Estrogen receptor [8]): 0.2 nM | CLint scaled at 1 h, 1 µM (in vitro [9]; microsomes): 44 mL/min/kg | EC50 (MCF7): 0.8 nM | solubility kinetic [2]: 1 µM (≈ 0.505 µg/mL) | CLint scaled at 1 h, 1 µM (in vitro [10]; microsomes): 17 mL/min/kg | DC50 (Estrogen receptor [11]): 0.06 nM

C[C@@H]1Cc2c([nH]c3ccccc23)[C@@H](c2c(F)cc(OCCN3CC(CF)C3)cc2F)N1CC(C)(C)F
CLint scaled at 1 h, 1 µM (in vitro [9]; microsomes): 29 mL/min/kg | EC50 (MCF7): 1 nM | bioavailability (in vivo [13]): 31% | solubility kinetic [2]: 10 µM (≈ 5.04 µg/mL) | CLint scaled at 1 h (in vitro [4]; hepatocytes): 29 mL/min/kg | CLint scaled at 1 h (in vitro [5]; hepatocytes): 6 mL/min/kg | logD [6]: 4 | clearance [7]: 34 mL/min/kg | CLint scaled at 1 h, 1 µM (in vitro [10]; microsomes): 10 mL/min/kg

C[C@@H]1Cc2c([nH]c3ccccc23)[C@@H](c2c(F)cc(NC3CN(CCC(F)F)C3)cc2F)N1CC(F)(F)CO
IC50 (Estrogen receptor [8]): 0.09 nM | CLint scaled at 1 h, 1 µM (in vitro [9]; microsomes): 25 mL/min/kg | EC50 (MCF7): 0.8 nM | solubility kinetic [2]: 42 µM (≈ 22.7 µg/mL) | CLint scaled at 1 h, 1 µM (in vitro [10]; microsomes): 12 mL/min/kg | DC50 (Estrogen receptor [11]): 0.02 nM

CC/C(=C(\c1ccccc1)c1ccc(OCCN(C)C)cc1)c1ccccc1 [TAMOXIFEN]
bioavailability (in vivo [1]): 69% | EC50 (MCF7): > 200 nM | CLint scaled at 1 h (in vitro [4]; hepatocytes): 33 mL/min/kg | CLint scaled at 1 h (in vitro [5]; hepatocytes): 12 mL/min/kg | clearance [7]: 95 mL/min/kg

CC1=C(c2cccc(O)c2)[C@H](c2ccc(OCCN3CC(CF)C3)cc2)Oc2ccc(O)cc21
bioavailability (in vivo [1]): 17% | solubility kinetic [2]: 47 µM (≈ 21.7 µg/mL) | Papp A→B at 3 h, 10 µM [3]: 4.6 ×10⁻⁶ cm/s | Emax [14]: 97% | CLint scaled at 1 h (in vitro [4]; hepatocytes): 46 mL/min/kg | T1/2 [15]: 6 h

C[C@@H]1Cc2c([nH]c3ccc(F)cc23)[C@@H](c2c(F)cc(NC3CN(CCCF)C3)cc2F)N1CC(F)(F)CO
CLint scaled at 1 h, 1 µM (in vitro [9]; rat liver microsomes): 14 mL/min/kg | clearance (in vivo [12]): 18 mL/min/kg | EC50 (MCF7): 0.5 nM | inhibition at 10 µM (Nav1.5): 14% | CLint scaled at 1 h (in vitro [4]; rat hepatocytes): 15 mL/min/kg | CLint scaled at 1 h (in vitro [5]; human hepatocytes): 10 mL/min/kg | CL free [16]: 1475 mL/min/kg | inhibition at 10 µM (Cav1.2): 10.7% | CLint scaled at 1 h, 1 µM (in vitro [10]; human liver microsomes): 10 mL/min/kg

C[C@@H]1Cc2c([nH]c3ccccc23)[C@@H](c2c(F)cc(OC3CN(CCCF)C3)cc2F)N1CC(C)(C)F
clearance (in vivo [12]): 19 mL/min/kg | EC50 (MCF7): 0.7 nM | bioavailability (in vivo [13]): 31% | solubility kinetic [2]: 1 µM (≈ 0.504 µg/mL) | Papp A→B at 3 h, 10 µM [3]: 0.4 ×10⁻⁶ cm/s | CLint scaled at 1 h (in vitro [4]; hepatocytes): 29 mL/min/kg | CLint scaled at 1 h (in vitro [5]; hepatocytes): 7 mL/min/kg | logD [6]: 4.8 | clearance [7]: 19 mL/min/kg

CC/C(=C(\c1ccc(O)cc1)c1ccc(OCCN(C)C)cc1)c1ccccc1 [AFIMOXIFENE]
EC50 (MCF7): 3.5 nM | solubility kinetic [2]: 31 µM (≈ 12 µg/mL) | CLint scaled at 1 h (in vitro [4]; hepatocytes): 32 mL/min/kg | CLint scaled at 1 h (in vitro [5]; hepatocytes): 14 mL/min/kg | logD [6]: 4

C[C@@H]1Cc2c([nH]c3ccccc23)[C@@H](c2c(F)cc(NCCNCCCF)cc2F)N1CC(F)(F)CO
CLint scaled at 1 h, 1 µM (in vitro [9]; microsomes): < 6 mL/min/kg | EC50 (MCF7): 0.6 nM | solubility kinetic [2]: 199 µM (≈ 102 µg/mL) | Emax [14]: 90% | CLint scaled at 1 h, 1 µM (in vitro [10]; microsomes): 7 mL/min/kg | DC50 (Estrogen receptor [11]): 0.27 nM

C[C@]12CC[C@@H]3c4ccc(O)cc4C[C@@H](CCCCCCCCC[S+]([O-])CCCC(F)(F)C(F)(F)F)[C@H]3[C@@H]1CC[C@@H]2O (stereo not given in full) [FULVESTRANT]
EC50 (MCF7): 2.4 nM | solubility kinetic [2]: 3 µM (≈ 1.82 µg/mL) | Emax [14]: 103% | CLint scaled at 1 h (in vitro [4]; hepatocytes): 29 mL/min/kg | CLint scaled at 1 h (in vitro [5]; hepatocytes): 15 mL/min/kg | logD [6]: > 5 | T1/2 [15]: 2.2 h

C[C@@H]1Cc2c([nH]c3ccccc23)[C@@H](c2c(F)cc(OCCNCCCF)cc2F)N1CC(F)(F)CO
EC50 (MCF7): 0.9 nM

C[C@@H]1Cc2c([nH]c3ccccc23)[C@@H](c2ccc(NC3CN(CCCF)C3)nc2)N1CC(F)(F)CO
IC50 (Estrogen receptor [8]): > 1000 nM | CLint scaled at 1 h, 1 µM (in vitro [9]; microsomes): 23 mL/min/kg | EC50 (MCF7): > 200 nM | solubility kinetic [2]: 114 µM (≈ 55.6 µg/mL) | CLint scaled at 1 h, 1 µM (in vitro [10]; microsomes): 6 mL/min/kg | DC50 (Estrogen receptor [11]): > 1000 nM

C[C@@H]1Cc2c([nH]c3ccccc23)[C@@H](c2c(F)cc(N[C@H]3CCN(CCCF)C3)cc2F)N1CC(F)(F)CO
CLint scaled at 1 h, 1 µM (in vitro [9]; microsomes): 26 mL/min/kg | EC50 (MCF7): 0.3 nM | solubility kinetic [2]: 80 µM (≈ 42.9 µg/mL) | CLint scaled at 1 h, 1 µM (in vitro [10]; microsomes): 11 mL/min/kg | DC50 (Estrogen receptor [11]): 0.16 nM

C[C@@H]1Cc2c([nH]c3ccccc23)[C@@H](c2c(F)cc(O[C@H]3CCN(CCCF)C3)cc2F)N1CC(F)(F)CO
CLint scaled at 1 h, 1 µM (in vitro [9]; microsomes): 35 mL/min/kg | EC50 (MCF7): 0.3 nM | solubility kinetic [2]: 35 µM (≈ 18.8 µg/mL) | CLint scaled at 1 h, 1 µM (in vitro [10]; microsomes): 15 mL/min/kg | DC50 (Estrogen receptor [11]): 0.12 nM
